The target in the assay is T1, oxytocin receptor (CHO-OTR/NFAT-β-Lactamase cells) (Homo sapiens, UniProt P30559).
T1 construct: expressed in transfected cells; host or cells: CHO-OTR cell line, further transfected with the NFAT-β-lactamase reporter construct
T1 sequence (P30559 1-389): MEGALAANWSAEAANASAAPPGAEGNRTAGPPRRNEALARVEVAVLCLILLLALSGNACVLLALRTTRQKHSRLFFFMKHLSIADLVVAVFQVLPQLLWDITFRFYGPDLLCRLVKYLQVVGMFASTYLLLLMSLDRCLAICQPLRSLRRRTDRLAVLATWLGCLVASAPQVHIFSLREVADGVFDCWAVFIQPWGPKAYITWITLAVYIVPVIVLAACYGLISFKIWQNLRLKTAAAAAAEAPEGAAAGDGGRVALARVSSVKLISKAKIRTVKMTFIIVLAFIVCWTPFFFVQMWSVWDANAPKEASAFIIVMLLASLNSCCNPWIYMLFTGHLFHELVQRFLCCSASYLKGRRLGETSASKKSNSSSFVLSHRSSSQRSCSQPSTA
Description: Oxytocin Receptor Beta-Lactamase Assay. The settings on record: oxytocin stimulation, read-out: oxytocin antagonist activity, expressed as a Ki value. It is filed as cell-based. On the procedure:
A suitable assay for determining the oxytocin antagonist activity of a compound is detailed herein below.
Oxytocin Receptor Beta-Lactamase Assay
Cell Culture Cells used are CHO-OTR/NFAT-β-Lactamase. The NFAT-β-lactamase expression construct was transfected into the CHO-OTR cell line and clonal populations were isolated via fluorescence activated cell sorting (FACS). An appropriate clone was selected to develop the assay. Growth Medium 90% F12 Nutrient Mix, 15 mM HEPES 10% FBS 400 μg/ml Geneticin 200 μg/ml Zeocin 2 mM L-Glutamine Assay Media 99.5% F12 Nutrient Mix, 15 mM HEPES 0.5% FBS
Recovery of cells—A vial of frozen cells is thawed rapidly in 37° C. water bath and the cell suspension transferred into a T225 flask with 50 ml of fresh growth medium and then incubated at 37° C., 5% CO2 in an incubator until the cells adhered to the flask Replace media with 50 ml of fresh growth media the following day.
Culturing cells—CHO-OTR-NFAT-βLactamase cells were grown in growth medium. Cells were harvested when they reached 80-90% confluence removing the medium and washing with pre-warmed PBS. PBS was then removed and Trypsin/EDTA added (3 mls for T225 cm^2 flask) before incubating for 5 min in 37° C./5% CO2 incubator. When cells were detached, pre-warmed growth media was added (7 mls for T225 cm^2 flask) and the cells re-suspended and mixed gently by pipetting to achieve single cell suspension. The cells were split into T225 flask at 1:10 (for 3 days growth) and 1:30 (for 5 days growth) ratio in 35 ml growth medium.
Cells grown at 80-90% confluence were harvested and counted. Suspensions of cells at 2×10^5 cells/ml in growth medium were prepared and 30 μl of cells suspension added in 384-well, black clear-bottom plates. A blank plate containing diluents from each reagent was used for background subtraction.
Plates were incubated at 37° C., 5% CO2 overnight. […]
Preparation of 1 ml of 6× Loading Buffer with Enhanced Loading Protocol (this requires scale-up according to number of plates to be screened). • 12 μl of solution A (1 mM CCF4-AM in Dry DMSO) was added to […] of solution B (100 mg/ml Pluronic-F127 in DMSO+0.1% Acetic Acid) and vortexed. • The resulting solution was added to 925 μl of solution C (24% w/w PEG400, 18% TR40 v/v in water). • 75 μl of solution D was added (200 mM probenecid in 200 mM NaOH). • 10 μl of 6× Loading Buffer was added to all wells and incubated for 1.5 hrs-2 hrs at room temperature in the dark. • The plates were read using an LJL Analyst, Excitation 405 nm, Emission 450 nm and 530 nm, gain optimal, lagtime 0.40 μs integration, 4 flashes, bottom reading.

Structures are written as SMILES.

Take `COc1ccc(-n2c(C)nnc2N2CCC(Oc3ccc(F)cc3C)CC2)cn1` [Example 43]: the inhibition constant (Ki) was found to be 4.2 nM.
As for `COCc1nnc(N2CCC(Oc3cccc(F)c3C)CC2)n1-c1ccc(OC)nc1` [Example 48], the figure is 1.8 nM; as for `COCc1nnc(N2CC(Oc3cccc(C)c3C)C2)n1-c1ccc(OC)nc1` [Example 28], 13.8 nM; as for `COCc1nnc(N2CC(Oc3ccc(F)cc3Cl)C2)n1-c1ccc(OC)nc1` [Example 25], 9 nM.

By Ki is commonly meant a dissociation constant, usually derived from enzyme kinetics or from competition with a known ligand.
